Data on seven compounds can be found in BindingDB's records for doi:10.1016/0006-2952(93)90073-6 (Janssen Research Foundation, 1993).

Structures are written as SMILES.

The test addresses T1, 5-hydroxytryptamine receptor 1A (Homo sapiens, UniProt P08908).
T1 sequence (P08908 whole entry): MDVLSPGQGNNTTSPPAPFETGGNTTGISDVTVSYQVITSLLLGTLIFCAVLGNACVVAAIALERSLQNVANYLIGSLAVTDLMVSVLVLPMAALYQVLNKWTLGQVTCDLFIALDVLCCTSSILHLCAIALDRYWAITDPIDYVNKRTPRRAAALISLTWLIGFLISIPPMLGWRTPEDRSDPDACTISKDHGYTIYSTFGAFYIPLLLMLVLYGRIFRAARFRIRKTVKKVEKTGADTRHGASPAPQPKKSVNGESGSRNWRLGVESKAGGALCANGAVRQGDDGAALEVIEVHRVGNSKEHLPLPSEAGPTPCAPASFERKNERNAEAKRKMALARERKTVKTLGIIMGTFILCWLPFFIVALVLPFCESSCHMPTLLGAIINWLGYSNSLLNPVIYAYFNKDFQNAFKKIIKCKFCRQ
One may read the Ki as the dissociation constant of the complex between target and ligand, obtained from inhibition or displacement. The low end stands for a stronger hold on the target, the high end for a looser hold on the target. `O=c1ccc2[nH]cc(C3=CCNCC3)c2[nH]1` [CAS_127792-75-0] came in with a Ki of 3750 nM. This lies in the single-digit micromolar range.

As to `Cc1nc2c(C)cccn2c(=O)c1CCN1CCC(c2noc3cc(F)ccc23)CC1` [CAS_129029-23-8], affinity was put at a Ki of 13.9 nM. Against the preceding compound, the Ki is about 270-fold lower.

`Cn1cc(C(F)(F)F)nc1-c1ccc(OCC(O)CNCCOc2ccc(O)c(C(N)=O)c2)cc1` (configuration not stated) displayed a Ki of 7360 nM. Compared with the last compound, the Ki is about 530-fold higher.

As for `OC(CNCC(O)C1CCc2cc(F)ccc2O1)C1CCc2cc(F)ccc2O1` (configuration not stated) [CAS_99200-09-6], the Ki is 25.8 nM.

In the case of `CCN1CCCC1CNC(=O)c1cc(S(N)(=O)=O)ccc1OC` (configuration not stated) [N-[(1-ethylpyrrolidin-2-yl)methyl]-2-methoxy-5-sulfamoylbenzamide], the Ki was above 10000 nM.

The compound `COc1ccc(CN(CCN(C)C)c2ccccn2)cc1` gave a Ki above 10000 nM.

`CN1C[C@@H](NS(=O)(=O)N(C)C)C[C@@H]2c3cccc4c3c(cn4C)C[C@H]21` [MESULERGINE] yielded a Ki of 197 nM.
